Measurements reported in patent US20130274258A1, “CARBAZOLE AND CARBOLINE DERIVATIVES, AND PREPARATION AND THERAPEUTIC APPLICATIONS THEREOF” (PHILIP MORRIS PRODUCTS S.A., priority 2010, published 2013).
Where two headings read alike, the source gives them in different places.

System: Jurkat cells
Assay: Jurkat cell viability, resazurin (Alamar Blue) assay
Format: cell-based
Conditions: for IC50: Homo sapiens
Description: The compounds were tested for pharmacological activity. In each of the tests, each compound was tested at […] in duplicates. […] The percentage of response relative to the DMSO control was then calculated for the mean value of the duplicates of each test. The values of the three tests were finally averaged and the standard deviations calculated.
Jurkat cells (10'000 cells/well) were incubated in the presence of various concentrations of compounds, doxorubicin or staurosporine. Twenty-two hours later, cells were incubated with resazurin (20 μg/ml) for 4 hours and fluorescence was measured at 590 nm.

[1] = Jurkat cells, 22 h then resazurin 4 h, three experiments in duplicates, read-out: IC50
[2] = Jurkat, control compounds of the tests, read-out: IC50 of control agents included in each test
[3] = Jurkat cells, 22 h then resazurin 4 h, three experiments in duplicates

SMILES | IC50 [1] | further results
Cc1nccc2c1[nH]c1ccc(-c3cccc(S(N)(=O)=O)c3)cc12 [Example E46, 3-(1-methyl-9H-pyrido[3,4-b]indol-6-yl)benzenesulfonamide] | 260 nM | –
Cc1nccc2c1[nH]c1ccc(-c3cccc(CNC(=O)N4CCN(C)CC4)c3)cc12 [Example E49] | 225 nM | –
CCNC(=O)NCc1cccc(-c2ccc3[nH]c4c(C)nccc4c3c2)c1 [Example E41] | 1240 nM | –
Cc1nccc2c3cc(-c4ccc5c(c4)CCO5)ccc3n(Cc3ccccc3)c12 [Example C12] | > 10000 nM | –
Cc1nccc2c1[nH]c1ccc(-c3cccc(NC=O)c3)cc12 [Example E34, 6-(3-formamidophenyl)-1-methyl-9H-pyrido[3,4-b]indole] | 28 nM | –
Cc1nccc2c1[nH]c1ccc(-c3cccc(N(C)C)c3)cc12 [Example C5, 6-(3-(N,N-dimethylamino)phenyl)-1-methyl-9H-pyrido[3,4-b]indole] | 11500 nM | –
C=CCn1c2ccc(-c3ccc4c(c3)CCO4)cc2c2ccnc(C)c21 [Example C11] | > 10000 nM | –
CN[C@@H]1C[C@H]2O[C@@](C)([C@@H]1OC)n1c3ccccc3c3c4c(c5c6ccccc6n2c5c31)C(=O)NC4 [staurosporine, reference compound] | – | IC50 [2]: 31 nM
Cc1nccc2c1[nH]c1ccc(-c3ccc4[nH]ccc4c3)cc12 [Example E26, 6-(1H-indol-5-yl)-1-methyl-9H-pyrido[3,4-b]indole] | 374 nM | –
Cc1nccc2c1[nH]c1ccc(-c3cccc(CNS(C)(=O)=O)c3)cc12 [Example E45] | 52 nM | –
Cc1nccc2c1[nH]c1ccc(-c3cncnc3)cc12 [Example C8, 6-(pyrimidin-5-yl)-1-methyl-9H-pyrido[3,4-b]indole] | 27800 nM | –
Cc1nccc2c1[nH]c1ccc(-c3cccc(C(N)=O)c3)cc12 [Example E12, 6-(3-aminocarbonylphenyl)-1-methyl-9H-pyrido[3,4-b]indole] | 46 nM | –
Cc1nccc2c1[nH]c1ccc(-c3ccc(C#N)cc3)cc12 [Example E22, 6-(4-cyanophenyl)-1-methyl-9H-pyrido[3,4-b]indole] | 5000 nM | –
CCc1nccc2c1[nH]c1ccc(-c3cccc(COCCOC)c3)cc12 [Example E43, 6-(3-((2-methoxyethoxy)methyl)phenyl)-1-ethyl 9H-pyrido[3,4-b]indole] | 340 nM | –
Cc1nccc2c1[nH]c1ccc(-c3cccc(CN4CCN(C)CC4)c3)cc12 [Example E57, 6-(3-((4-methylpiperazin-1-yl)methyl)phenyl)-1-methyl 9H-pyrido[3,4-b]indole] | 200 nM | –
COC(=O)c1cccc(-c2ccc3[nH]c4c(C)nccc4c3c2)c1 [Example E14, 6-(3-methoxycarbonylphenyl)-1-methyl-9H-pyrido[3,4-b]indole] | 7230 nM | –
Cc1cc(C)cc(-c2ccc3[nH]c4c(C)nccc4c3c2)c1 [Example E8, 6-(3,5-dimethylphenyl)-1-methyl-9H-pyrido[3,4-b]indole] | 128 nM | –
Cc1nccc2c1[nH]c1ccc(-c3ccc(C(F)(F)F)cc3)cc12 [Example C3, 6-(4-(trifluoromethyl)phenyl)-1-methyl-9H-pyrido[3,4-b]indole] | – | IC50 (μM) [3]: not active
CC(=O)c1cccc(-c2ccc3[nH]c4c(C)nccc4c3c2)c1 [Example E13, 6-(3-acetylphenyl)-1-methyl-9H-pyrido[3,4-b]indole] | 2030 nM | –
Cc1nccc2c1[nH]c1ccc(-c3cccc(CN(C)C)c3)cc12 [Example E42, N,N-dimethyl-1-(3-(1-methyl-9H-pyrido[3,4-b]indol-6-yl)phenyl)methanamine] | 850 nM | –
Cc1nccc2c1[nH]c1ccc(-c3ccsc3)cc12 [Example C10, 6-(thiophen-3-yl)-1-methyl-9H-pyrido[3,4-b]indole] | – | IC50 (μM) [3]: not active
Cc1nccc2c1[nH]c1ccc(-c3cccc(CC#N)c3)cc12 [Example E23, 6-(3-cyanomethylphenyl)-1-methyl-9H-pyrido[3,4-b]indole] | 64 nM | –
CCc1nccc2c1[nH]c1ccc(-c3cccc(NC(C)=O)c3)cc12 [Example E52, N-(3-(1-ethyl-9H-pyrido[3,4-b]indol-6-yl)phenyl)acetamide] | 18 nM | –
Cc1nccc2c1[nH]c1ccc(-c3cccc(CN4CCOCC4)c3)cc12 [Example E56] | 733 nM | –
Cc1nccc2c1[nH]c1ccc(-c3cccc(F)c3)cc12 [Example E5, 6-(3-fluorophenyl)-1-methyl-9H-pyrido[3,4-b]indole] | 567 nM | –
Cc1nccc2c1[nH]c1ccc(-c3cc(C#N)ccc3F)cc12 [Example E24, 6-(5-cyano-2-fluorophenyl)-1-methyl-9H-pyrido[3,4-b]indole] | 968 nM | –

SMILES | IC50 [1] | further results
Cc1nccc2c1[nH]c1ccc(-c3cccc(CN)c3)cc12 [Example E10, 6-(3-(aminomethyl)phenyl)-1-methyl-9H-pyrido[3,4-b]indole] | 988 nM | –
Cc1nccc2c1[nH]c1ccc(-c3cccc(O)c3)cc12 [Example E17, 6-(3-hydroxyphenyl)-1-methyl-9H-pyrido[3,4-b]indole] | 195 nM | –
CC(C)c1nccc2c1[nH]c1ccc(-c3ccc4c(c3)CCO4)cc12 [Example E39, 6-(2,3-dihydrobenzofuran-5-yl)-1-isopropyl-9H-pyrido[3,4-b]indole] | 302 nM | –
Cc1nccc2c1[nH]c1ccc(-c3ccc(Cl)cc3)cc12 [Example C2, 6-(4-chlorophenyl)-1-methyl-9H-pyrido[3,4-b]indole] | – | IC50 (μM) [3]: not active
CC(=O)OCc1cccc(-c2ccc3[nH]c4c(C)nccc4c3c2)c1 [Example E15, 6-(3-(acetoxymethyl)phenyl)-1-methyl-9H-pyrido[3,4-b]indole] | 34 nM | –
Cc1nccc2c1[nH]c1ccc(-c3cccc(C(C)O)c3)cc12 (stereo not shown) [Example E19, 6-(3-(1-hydroxyethyl)phenyl)-1-methyl-9H-pyrido[3,4-b]indole] | 1400 nM | –
COc1cccc2c1C(=O)c1c(O)c3c(c(O)c1C2=O)C[C@@](O)(C(=O)CO)C[C@@H]3O[C@H]1C[C@H](N)[C@H](O)[C@H](C)O1 [doxorubicin, reference compound] | – | IC50 [2]: 85 nM
COc1ccc(-c2ccc3[nH]c4c(C)nccc4c3c2)cc1 [Example C4, 6-(4-methoxyphenyl)-1-methyl-9H-pyrido[3,4-b]indole] | – | IC50 (μM) [3]: not active
CCc1nccc2c3cc(-c4cccc(C(N)=O)c4)ccc3n(C)c12 [Example E50, 3-(1-ethyl-9-methyl-9H-pyrido[3,4-b]indol-6-yl)benzamide] | 16 nM | –
Cc1nccc2c1[nH]c1ccc(-c3cccc(-c4ccco4)c3)cc12 [Example E55, 6-(3-(furan-2-yl)phenyl)-1-methyl-9H-pyrido[3,4-b]indole] | 2200 nM | –
Cc1nccc2c3cc(-c4ccc5c(c4)CCO5)ccc3n(C)c12 [Example E51, 6-(2,3-dihydrobenzofuran-5-yl)-1,9-dimethyl-9H-pyrido[3,4-b]indole] | 9 nM | –
Cc1nccc2c1[nH]c1ccc(-c3ccc4c(c3)CCCO4)cc12 [Example E54, 6-(chroman-6-yl)-1-methyl-9H-pyrido[3,4-b]indole] | 53 nM | –
Cc1nccc2c1[nH]c1ccc(-c3cccc(C(=O)NCCO)c3)cc12 [Example E48, N-(2-hydroxyethyl)-3-(1-methyl-9H-pyrido[3,4-b]indol-6-yl)benzamide] | 627 nM | –
Cc1nccc2c1[nH]c1ccc(-c3cccc(-n4cccn4)c3)cc12 [Example E59, 6-(3-(1H-pyrazol-1-yl)phenyl)-1-methyl-9H-pyrido[3,4-b]indole] | 913 nM | –
CC(=O)OCc1cc(COC(C)=O)cc(-c2ccc3[nH]c4c(C)nccc4c3c2)c1 [Example E16, 6-(3,5-bis(acetoxymethyl)phenyl)-1-methyl-9H-pyrido[3,4-b]indole] | 52 nM | –
FC(F)(F)c1nccc2c1[nH]c1ccc(-c3ccc4c(c3)CCO4)cc12 [Example E36, 6-(2,3-dihydrobenzofuran-5-yl)-1-trifluoromethyl-9H-pyrido[3,4-b]indole] | 96 nM | –
Cc1nccc2c1[nH]c1ccc(-c3cccc(C(=O)O)c3)cc12 [Example C6, 6-(3-carboxyphenyl)-1-methyl-9H-pyrido[3,4-b]indole] | – | IC50 (μM) [3]: not active
Cc1nccc2c1[nH]c1ccc(-c3ccccc3F)cc12 [Example E4, 6-(2-fluorophenyl)-1-methyl-9H-pyrido[3,4-b]indole] | 4070 nM | –
CC(=O)NCc1cccc(-c2ccc3[nH]c4c(C)nccc4c3c2)c1 [Example E11, 6-(3-(acetamidomethyl)phenyl)-1-methyl-9H-pyrido[3,4-b]indole] | 34 nM | –
Cc1cccc2c1[nH]c1ccc(-c3ccc4c(c3)CCO4)cc12 [Example E58, 6-(2,3-dihydrobenzofuran-5-yl)-1-methyl-9H-carbazole] | 3750 nM | –
Cc1nccc2c1[nH]c1ccc(-c3cccc(Cc4nn[nH]n4)c3)cc12 [Example E27, 6-(((2H-tetrazol-5-yl)methyl)phenyl)-1-methyl-9H-pyrido[3,4-b]indole] | 2200 nM | –
Cc1ccccc1-c1ccc2[nH]c3c(C)nccc3c2c1 [Example C9, 6-(2-methylphenyl)-1-methyl-9H-pyrido[3,4-b]indole] | 41800 nM | –
CCCCCn1c2ccc(-c3ccc4c(c3)CCO4)cc2c2ccnc(C)c21 [Example C13] | > 10000 nM | –
CCc1nccc2c1[nH]c1ccc(-c3ccc4c(c3)CCO4)cc12 [Example E37, 6-(2,3-dihydrobenzofuran-5-yl)-1-ethyl-9H-pyrido[3,4-b]indole] | 4 nM | –
Cc1nccc2c1[nH]c1ccc(-c3cccc(CO)c3)cc12 [Example E18, 6-(3-hydroxymethylphenyl)-1-methyl-9H-pyrido[3,4-b]indole] | 46 nM | –
Cc1nccc2c1[nH]c1ccc(-c3cccc(N)c3)cc12 [Example E33, 6-(3-aminophenyl)-1-methyl-9H-pyrido[3,4-b]indole] | 96 nM | –
